EP4755891A1, “ARF1 INHIBITOR AND USE THEREOF” (AOBIO PHARMACEUTICAL CO., LTD., priority 2023, dated 2025)
“Also recorded” adds a separate entry of the source. Like-named read-outs stand apart in the source and are kept apart here.

Tests used:
Caco-2 cells = assay: Permeability in Caco-2 cells; type: in vitro ADME; conditions: Caco-2, conclusion in words
Description: (§1) The permeability of Compound 9 was evaluated using Caco-2 cells. The transport buffer used in this study was HBSS with 10.0 mM HEPES, pH 7.40±0.05. The test concentration was 2.00 µM, and a bidirectional test was performed on the test compound. Digoxin was repeatedly tested bidirectionally at 10.0 µM, while nadolol and metoprolol were repeatedly tested in the A-B direction at 2.00 µM. The final DMSO concentration was adjusted to less than 1%. The mixture was incubated at 37.0°C, 5% CO2, saturated humidity, without shaking in a CO2 incubator for 2 hours. All samples were mixed with acetonitrile containing internal standards and centrifuged at 3220 × g for 10 mins. The concentrations of the test compound and reference compound in the initial solution, donor solution, and acceptor solution were determined by the LC-MS/MS, using the analyte/internal standard peak area ratio.

[1] = Permeability in Caco-2 cells; type: in vitro ADME; conditions: human, Caco-2, pH 7.4, 2.00 µM
Description: as §1

[2] = Solubility in DMSO and H2O
[3] = Plasma stability, dog plasma; type: in vitro ADME; conditions: 2.0 µM, 37°C
Description: (§2) At 37°C, 2.0 µM of the compound was co-incubated with plasma samples from five species (mouse, rat, dog, cynomolgus monkey, human) for 120 minutes. The concentration of the compound in the samples was detected by the liquid chromatography-tandem mass spectrometry (LC-MS/MS) method, and the half-life (T1/2) was calculated.

[4] = Plasma stability, human plasma; type: in vitro ADME; conditions: 2.0 µM, 37°C
Description: as §2

[5] = Pharmacokinetic study in SD rats; type: in vivo
Description: In this experiment, six male SD rats were divided into two groups based on similar body weight. These rats were administered Compound 9 via single intravenous injection and oral gavage, respectively. The intravenous injection dose was 2 mg/kg, while the oral gavage dose was 10 mg/kg. The vehicle for both intravenous and oral administration was a clear solution of 5% DMSO + 5% PEG400 + 90% water. The concentration for intravenous injection was 0.4 mg/mL, and for oral gavage was 1 mg/mL. K2-EDTA was used as the anticoagulant. The blood sampling time points were all at: 0.083, 0.25, 0.5, 1, 3, 6, 12, and 24 hours.
Blood samples of 0.02 mL were collected from the saphenous vein of all experimental animals, and the actual blood collection time was recorded. In this experiment, the deviation of the blood sampling time from the theoretical sampling time complied with the regulations (points within 1 hour after administration were within ±1 minute, and all others were within 5% of the theoretical time). After blood sample collection, the blood samples were immediately transferred to labeled centrifuge tubes containing K2-EDTA (0.5 M). The samples were then centrifuged (3000 g, 4°C, 15 minutes), and the plasma was collected. The plasma was transferred to a pre-cooled centrifuge tube, flash-frozen in dry ice, and stored in an ultra-low temperature freezer at -60°C or less until LC-MS/MS analysis was performed.

Mouse neuroblastoma N2A = assay: Test for Golgi morphology abnormalities (GM130 immunofluorescence); type: cell-based; conditions: N2A cells; FIG. 4
Description: GCA, a known Arf1 inhibitor, was used as a positive control.
Mouse neuroblastoma N2A (N2a, ATCC®CCL-131™) was cultured, treated, and subjected to immunofluorescence staining as previously reported (Wang et al., 2021).

CT26 colon cancer = assay: Inhibition of CT26 colon cancer in BALB/c mice (Example 47, 5 mg/kg); type: in vivo; conditions: gavaged daily, two consecutive weeks
Description: In this example, the inhibitory effects of Compounds 9, 11-3, 25, 26, 27, and DU102 on colon cancer growth were tested.
Murine CT26 cells were inoculated into the left abdomen of 6-week-old male mice at a dose of 5×10^5 cells per mouse. Approximately 7 days later, the mice were randomly divided into two groups: the control group or the compound treatment group. They were gavaged daily with either the vehicle control (ddH2O or 5% DMSO in corn oil) or 5 mg/kg of Compounds 9, 11-3, 25, 26, or 27 (dissolved in the corresponding vehicle) for two consecutive weeks. Tumor diameters were measured every 2-3 days using a digital caliper (ULINE, Cat^# H-7352), and the tumor volume was calculated using the formula ½ × longitudinal diameter (length) × maximum transverse diameter (width). When the maximum tumor volume reached 2000 mm^3, the mice were euthanized.

[6] = test system: Drosophila orthotopic tumors; assay: Inhibition of orthotopic tumor growth in Drosophila; type: in vivo; conditions: 5 µM in food, 4 days; Ras^V12-PMML clones; FIG. 7
Description: In this example, the inhibitory effects of Compounds 3 and 9 synthesized in the above preparation examples on the growth of Drosophila orthotopic tumors were tested. As previously described, renal stem cell tumor clusters were induced by expressing Ras in Drosophila renal stem cell (Ras^V12-PMML) clones (Singh et al., 2016). The Drosophila carrying Ras^V12-PMML clones were cultured with normal food at room temperature for 4 days to allow tumor growth. They were then switched to food containing the indicated drugs for an additional 4 days, followed by feeding the Drosophila carrying Ras^V12-PMML with normal food containing DMSO or 5 µM Compound 3 or Compound 9. In the indicated groups, the number of esg>GFP + tumor cells per 5×10^3 µm^2 area was quantified to characterize tumor size.

Arf1 = target: T1, Arf1 (Homo sapiens, UniProt P84077); assay: Inhibition test of Arf1 activation (Active Arf1 pull-down and detection kit, Western blot); type: cell-based; conditions: lysate of liver cancer Huh-7 cells; GTP-bound Arf1; FIG. 3
T1 construct: endogenous in cells; host or cells: Huh-7 liver cancer cells (lysate)
Description: In this example, the inhibitory ability of Compounds 3 and 9 synthesized in the above preparation examples on Arf1 activation was tested. The Pierce Active Arf1 Pull-Down and Detection Kit (Thermo Scientific, Cat#16121) was used with the lysate of liver cancer Huh-7 cells to detect the activated Arf1. It is a complete kit that selectively enriches and detects GTP-bound Arf1 GTPase through specific protein interactions with the GGA3 protein-binding domain.

T1 sequence (P84077 whole entry): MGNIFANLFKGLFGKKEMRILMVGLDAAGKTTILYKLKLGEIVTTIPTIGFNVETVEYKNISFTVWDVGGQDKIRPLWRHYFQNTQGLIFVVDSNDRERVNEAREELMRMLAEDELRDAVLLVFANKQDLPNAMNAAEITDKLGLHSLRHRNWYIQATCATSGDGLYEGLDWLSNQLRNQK

Cc1csc2ncnc(Nc3ccc4c(c3)ncn4C)c12 [Compound 9, 5-Methyl-N-(1-methyl-1H-benzo[d]imidazol-5-yl)thieno[2,3-d]pyrimidin-4-amine]
cellular permeability (Caco-2 cells): high cellular permeability
substrate of the efflux transporter P-gp (Caco-2 cells): unlikely to be a substrate of the efflux transporter P-gp
Papp A→B at 2 h, 2 µM ([1]; 2 hours, pH 7.40±0.05): 29 ×10⁻⁶ cm/s
Papp B→A at 2 h, 2 µM ([1]; 2 hours, pH 7.40±0.05): 20.7 ×10⁻⁶ cm/s
efflux ratio at 2 h, 2 µM ([1]; bidirectional, read-out: Efflux Ratio (ER)): 0.714
solubility in DMSO ([2]; DMSO, FIG. 2A): soluble
solubility in H2O ([2]; H2O, FIG. 2B): high solubility
remaining amount in plasma ([3]; time point 0 min): 100.0%
remaining amount in plasma ([3]; time point 10 min): 99.0%
remaining amount in plasma ([3]; time point 30 min): 94.0%
remaining amount in plasma ([3]; time point 60 min): 98.8%
remaining amount in plasma ([3]; time point 120 min): 86.0%
remaining amount in plasma ([4]; time point 0 min): 100.0%
remaining amount in plasma ([4]; time point 10 min): 99.8%
remaining amount in plasma ([4]; time point 30 min): 108.9%
remaining amount in plasma ([4]; time point 60 min): 113.3%
remaining amount in plasma ([4]; time point 120 min): 104.6%
absorption in rats ([5]; conclusion in words): rapidly absorbed
apparent volume of distribution ([5]; conclusion in words): moderate apparent volume of distribution
oral bioavailability ([5]; conclusion in words): high oral bioavailability
Vd ([5]; rat, plasma, Intravenous Injection, 2 mg/kg, male SD rats, read-out: Apparent Volume of Distribution Vdss): 0.647 L/kg
clearance ([5]; rat, plasma, Intravenous Injection, 2 mg/kg, male SD rats, read-out: Clearance Cl): 39.8 mL/min/kg
half-life ([5]; rat, plasma, Intravenous Injection, 2 mg/kg, male SD rats, read-out: Half-Life T1/2 (converted)): 11 min
bioavailability ([5]; rat, plasma, Oral Gavage, 10 mg/kg vs intravenous 2 mg/kg, male SD rats, read-out: Bioavailability F): 164%
AUC(0-t) ([5]; rat, plasma, Oral Gavage, 10 mg/kg, male SD rats, read-out: Exposure AUC0-last): 6840 ng·h/mL
half-life ([5]; rat, plasma, Oral Gavage, 10 mg/kg, male SD rats, read-out: Half-life T1/2 (converted)): 34.2 min
Cmax ([5]; rat, plasma, Oral Gavage, 10 mg/kg, male SD rats, read-out: Maximum Concentration Cmax): 4770 ng/mL
Golgi morphology (Golgi apparatus defects, distribution of Golgi marker GM130) (Mouse neuroblastoma N2A): induce Golgi apparatus defects; also recorded: effectively induce morphological changes in the Golgi apparatus
size of murine colon cancer (CT26 colon cancer; FIG. 9A): size of murine colon cancer inhibited
weight of murine colon cancer (CT26 colon cancer; FIG. 9B): weight of murine colon cancer reduced significantly
inhibition of CT26 colon cancer (CT26 colon cancer; FIG. 9 and FIG. 10): effectively inhibit CT26 colon cancer
orthotopic tumor growth in Drosophila [6]: effectively inhibit orthotopic tumor growth
inhibition of Arf1 activation (Arf1): effectively inhibit the activation of Arf1; also recorded: effective inhibitors
